{"source": "EPA's ToxValDB 9.5", "key": {"[1]": {"tested_on": "Rattus norvegicus", "conditions": "subchronic, oral; for NOEL: gavage"}, "[2]": {"tested_on": "Rattus norvegicus", "conditions": "oral, M/F"}, "[3]": {"tested_on": "Rattus norvegicus", "conditions": "chronic, oral, diet"}, "[4]": {"tested_on": "Mus musculus", "conditions": "for LD50: acute"}, "[5]": {"tested_on": "Oryctolagus sp.", "conditions": "for LD50: acute"}, "[6]": {"tested_on": "Rattus norvegicus", "conditions": "for LD50: acute"}, "[7]": {"tested_on": "Canidae", "conditions": "chronic, oral, diet, Dog Other"}, "[8]": {"tested_on": "Rattus norvegicus", "conditions": "Hershberger; duration: 7 days; oral; gavage; Wistar; Neither + effect on AGD in 2500mg/kg at birth / significant increase in testis wt at PND 50 in 500 and 2500 mg/kg but not at PND 92 or …"}, "[9]": {"conditions": "duration: 1 years, M/F, increased wbc, decreased rbc (females), increased alkaline phosphatase (males)"}, "[10]": {"conditions": "duration: 2 years, M/F, abnormal pigments in blood"}, "[11]": {"conditions": "duration: 1 years, M/F, gastric mucosal irritation"}, "[12]": {"conditions": "duration: 1 years, M, increased serum bilirubin and aspartate aminotransferase, increased urinary volume"}, "[13]": {"conditions": "duration: 2 years, M/F, testicular degeneration"}, "[14]": {"conditions": "duration: 1 years, M/F, Blood loss into the gastrointestinal tract + coagulation defect in male and female dogs"}, "[15]": {"conditions": "developmental, duration: 6 days, oral, ICR"}, "[16]": {"conditions": "reproduction developmental, duration: 6 days, oral, F, ICR"}, "[17]": {"conditions": "short-term, duration: 13 days, oral, gavage, B6C3F1"}, "[18]": {"conditions": "short-term, duration: 16 days, oral, gavage, B6C3F1"}, "[19]": {"conditions": "subchronic, duration: 13 weeks, oral, gavage, B6C3F1"}, "[20]": {"conditions": "reproduction developmental, duration: 13 days, oral, F, Japanese White"}, "[21]": {"conditions": "chronic, duration: 103 weeks, oral, gavage, F, Fischer 344"}, "[22]": {"conditions": "developmental, duration: 7 days, oral, Wistar"}, "[23]": {"conditions": "short-term, duration: 13 days, oral, gavage, Fischer 344"}, "[24]": {"conditions": "short-term, duration: 13 days, oral, gavage, M, Fischer 344"}, "[25]": {"conditions": "short-term, duration: 16 days, oral, gavage, Fischer 344"}, "[26]": {"conditions": "subchronic, duration: 30 days, oral, M, Sprague-Dawley"}, "[27]": {"conditions": "subchronic, duration: 30 days, oral, Sprague-Dawley"}}, "note": "“And” between values parts separate entries of the source, which are not always exact repeats. Equal entries are not always repeated.", "data": [{"smiles": "O=C1C=CC(=O)O1", "note": "[2,5-Furandione]", "values": [{"measurement": "NOAEL", "setting": "[1]; duration: 90 days, diet, M/F, Sprague-Dawley, Urinalysis: Pro increase + Absolute Organ Weight: Kidney increase + Relative Organ Weight: Liver increase, Kidney increase + Necropsy: …", "result": "< 100", "unit": "mg/kg-day"}, {"measurement": "NOAEL", "setting": "[2]; chronic, no effects", "result": 10, "unit": "mg/kg-day"}, {"measurement": "LOAEL", "setting": "[2]; reproduction developmental, renal lesions", "result": 20, "unit": "mg/kg-day"}, {"measurement": "NOAEL", "setting": "[3]; duration: 2 years, Kidney: Lesions", "result": 10, "unit": "mg/kg-day"}]}, {"smiles": "CCOC(=O)CCl", "note": "[Ethyl chloroacetate]", "values": [{"measurement": "LD50", "setting": "[4]; injection, subcutaneous", "result": 250, "unit": "mg/kg"}, {"measurement": "LD50", "setting": "[4]; oral", "result": 350, "unit": "mg/kg"}, {"measurement": "LD50", "setting": "[5]; dermal", "result": "335 mg/kg and 230 mg/kg"}, {"measurement": "LD50", "setting": "[5]; dermal, occlusive, New Zealand", "result": 255, "unit": "mg/kg"}, {"measurement": "LD50", "setting": "[6]; dermal", "result": 161, "unit": "mg/kg"}]}, {"smiles": "O=c1ccc(=O)[nH][nH]1", "note": "[Maleic hydrazide]", "values": [{"measurement": "LEL", "setting": "[2]; chronic, duration: 2 years, diet, renal dysfunction", "result": 500, "unit": "mg/kg-day"}, {"measurement": "LOAEL", "setting": "[3]; duration: 28 months, Kidney: Altered function", "result": 500, "unit": "mg/kg-day"}]}, {"smiles": "C=CCOC(=O)OCCOCCOC(=O)OCC=C", "note": "[Diallyl diglycol carbonate]", "values": [{"measurement": "LD50", "setting": "[4]; injection, Intraperitoneal, albino", "result": 269, "unit": "mg/kg"}, {"measurement": "NOAEL", "setting": "[5]; reproduction developmental, duration: 6 days, dermal, New Zealand", "result": 0.1, "unit": "mg/kg-day"}, {"measurement": "LD50", "setting": "[6]; oral, gavage, Crl", "result": 349, "unit": "mg/kg"}, {"measurement": "LD50", "setting": "[6]; oral, gavage, Fischer 344", "result": 515, "unit": "mg/kg"}]}, {"smiles": "N#Cc1cc(Br)c(O)c(Br)c1", "note": "[Bromoxynil]", "values": [{"measurement": "NOEL", "setting": "[2]; chronic, duration: 2 years, diet, no effects", "result": 5, "unit": "mg/kg-day"}, {"measurement": "NOEL", "setting": "[3]; duration: 2 years, None Observed", "result": 5, "unit": "mg/kg-day"}]}, {"smiles": "CCOC(=O)c1ccccc1S(=O)(=O)NC(=O)Nc1nc(Cl)cc(OC)n1", "note": "[Chlorimuron-ethyl]", "values": [{"measurement": "LEL", "setting": "[7]; [9]", "result": 37.5, "unit": "mg/kg-day"}, {"measurement": "NOEL", "setting": "[7]; [9]", "result": 6.25, "unit": "mg/kg-day"}]}, {"smiles": "CN(C)C(=O)Nc1ccc(Cl)c(Cl)c1", "note": "[Diuron]", "values": [{"measurement": "NOEL", "setting": "[1]; M, Sprague-Dawley, Body Weight Changes: decrease + Hematology: RBC decrease, Hgb decrease, Hct decrease, MCHC decrease, MCV increase, Ret increase + Blood …", "result": 20, "unit": "mg/kg-day"}, {"measurement": "LEL", "setting": "[7]; [10]", "result": 3.12, "unit": "mg/kg-day"}, {"measurement": "NOEL", "setting": "[7]; [10]", "result": 0.625, "unit": "mg/kg-day"}]}, {"smiles": "CCCC1COC(Cn2cncn2)(c2ccc(Cl)cc2Cl)O1", "note": "(centres undefined) [Propiconazole]", "values": [{"measurement": "LEL", "setting": "[7]; [11]", "result": 6.25, "unit": "mg/kg-day"}, {"measurement": "NOEL", "setting": "[7]; [11]", "result": 1.25, "unit": "mg/kg-day"}, {"measurement": "NOEL", "setting": "[8]", "result": 2500, "unit": "mg/kg-day"}]}, {"smiles": "COC(=O)c1ccccc1S(=O)(=O)NC(=O)N(C)c1nc(C)nc(OC)n1", "note": "[Tribenuron-methyl]", "values": [{"measurement": "LEL", "setting": "[7]; [12]", "result": 8.16, "unit": "mg/kg-day"}, {"measurement": "NOEL", "setting": "[7]; [12]", "result": 0.79, "unit": "mg/kg-day"}]}, {"smiles": "CCOP(=O)=O.CCOP(=O)=O.CCOP(=O)=O.[Al+3]", "note": "[Fosetyl aluminum]", "values": [{"measurement": "NOEL", "setting": "[7]; duration: 2 years, testicular degeneration", "result": 250, "unit": "mg/kg-day"}, {"measurement": "LEL", "setting": "[7]; [13]", "result": 400, "unit": "mg/kg-day"}, {"measurement": "NOEL", "setting": "[7]; [13]", "result": 250, "unit": "mg/kg-day"}]}, {"smiles": "CC(C)N1C(=O)c2ccccc2NS1(=O)=O", "note": "[Bentazone]", "values": [{"measurement": "LOAEL", "setting": "[7]; [14]", "result": 13.1, "unit": "mg/kg-day"}, {"measurement": "NOAEL", "setting": "[7]; [14]", "result": 3.2, "unit": "mg/kg-day"}]}, {"smiles": "C=C(C)[C@H]1CC=C(C)CC1", "note": "[D-Limonene]", "values": [{"measurement": "NOAEL", "setting": "[4]; chronic, duration: 103 weeks, oral, gavage, B6C3F1", "result": 500, "unit": "mg/kg-day"}, {"measurement": "LOAEL", "setting": "[4]; chronic, duration: 103 weeks, oral, gavage, F, B6C3F1", "result": 1000, "unit": "mg/kg-day"}, {"measurement": "LOAEL", "setting": "[4]; [15]", "result": 2360, "unit": "mg/kg-day"}, {"measurement": "NOAEL", "setting": "[4]; [15]", "result": 591, "unit": "mg/kg-day"}, {"measurement": "LOAEL", "setting": "[4]; [16]", "result": 2360, "unit": "mg/kg-day"}, {"measurement": "NOAEL", "setting": "[4]; [16]", "result": 591, "unit": "mg/kg-day"}, {"measurement": "LOAEL", "setting": "[4]; [17]", "result": 1000, "unit": "mg/kg-day"}, {"measurement": "NOAEL", "setting": "[4]; [17]", "result": 500, "unit": "mg/kg-day"}, {"measurement": "LOAEC", "setting": "[4]; [18]", "result": 3300, "unit": "mg/kg-day"}, {"measurement": "LOAEL", "setting": "[4]; [18]", "result": 3300, "unit": "mg/kg-day"}, {"measurement": "NOAEL", "setting": "[4]; [18]", "result": 1650, "unit": "mg/kg-day"}, {"measurement": "LOAEL", "setting": "[4]; [19]", "result": 1000, "unit": "mg/kg-day"}, {"measurement": "NOAEL", "setting": "[4]; [19]", "result": 500, "unit": "mg/kg-day"}, {"measurement": "LOAEL", "setting": "[5]; [20]", "result": 500, "unit": "mg/kg-day"}, {"measurement": "NOAEL", "setting": "[5]; [20]", "result": 250, "unit": "mg/kg-day"}, {"measurement": "NOAEL", "setting": "[5]; reproduction developmental, duration: 13 days, oral, Japanese White, generation: F1", "result": "> 1000", "unit": "mg/kg-day"}, {"measurement": "LOAEL", "setting": "[6]; [21]", "result": 600, "unit": "mg/kg-day"}, {"measurement": "NOAEL", "setting": "[6]; [21]", "result": 300, "unit": "mg/kg-day"}, {"measurement": "LOAEL", "setting": "[6]; chronic, duration: 103 weeks, oral, gavage, M, Fischer 344", "result": 75, "unit": "mg/kg-day"}, {"measurement": "LOAEL", "setting": "[6]; [22]", "result": 2870, "unit": "mg/kg-day"}, {"measurement": "NOAEL", "setting": "[6]; [22]", "result": 591, "unit": "mg/kg-day"}, {"measurement": "NOAEL", "setting": "[6]; reproduction developmental, duration: 7 days, oral, F, Wistar", "result": 591, "unit": "mg/kg-day"}, {"measurement": "LOAEL", "setting": "[6]; [23]", "result": 600, "unit": "mg/kg-day"}, {"measurement": "NOAEL", "setting": "[6]; [23]", "result": 300, "unit": "mg/kg-day"}, {"measurement": "LOAEL", "setting": "[6]; [24]", "result": 30, "unit": "mg/kg-day"}, {"measurement": "NOAEL", "setting": "[6]; [24]", "result": 5, "unit": "mg/kg-day"}, {"measurement": "LOAEC", "setting": "[6]; [25]", "result": 1650, "unit": "mg/kg-day"}, {"measurement": "LOAEL", "setting": "[6]; [25]", "result": 3300, "unit": "mg/kg-day"}, {"measurement": "NOAEL", "setting": "[6]; [25]", "result": 1650, "unit": "mg/kg-day"}, {"measurement": "LOAEL", "setting": "[6]; [26]", "result": 2770, "unit": "mg/kg-day"}, {"measurement": "NOAEL", "setting": "[6]; [26]", "result": 1380, "unit": "mg/kg-day"}, {"measurement": "LOAEL", "setting": "[6]; [27]", "result": 2770, "unit": "mg/kg-day"}, {"measurement": "NOAEL", "setting": "[6]; [27]", "result": 1380, "unit": "mg/kg-day"}, {"measurement": "NOEL", "setting": "[1]; duration: 13 weeks, M/F, Fischer 344, Deaths + Clinical Observation: Rough hair coats Excessive lacrimation + Body Weight Changes: decrease + Histopathology: Kidney-Nephropathy", "result": "< 150", "unit": "mg/kg-day"}]}, {"smiles": "CC(C)(N)CO", "note": "[2-Amino-2-methylpropan-1-ol]", "values": [{"measurement": "LD50", "setting": "[4]; oral, gavage", "result": 3350, "unit": "mg/kg"}, {"measurement": "LD50", "setting": "[5]; dermal, occlusive", "result": "> 2000", "unit": "mg/kg"}, {"measurement": "LOAEL", "setting": "[6]; subchronic, duration: 3 months, oral, diet, Sprague-Dawley", "result": 240, "unit": "mg/kg-day"}]}]}
